Test results published in patent US8263040B2, “Metal chelates having a perfluorinated PEG radical, processes for their preparation, and their use” (Bayer Schering Pharma AG, priority 2006, dated 2012).

Columns and labels:
[1] = Plasma kinetics after intravenous administration in rats (ICP-AES, WinNonlin); format: in vivo; conditions: i.v., 50 μmol of total gadolinium/kg
Protocol: After intravenous administration of 50 μmol of total gadolinium/kg of body weight of the substances from Examples 2c), 21 c) and 22 c) in rats (n=3), blood samples were taken at different points in time (up to 24 h p.i.) by means of a catheter in the common carotid artery, and the metal content was determined by means of atomic emission spectrometry (ICP-AES) and converted to plasma values by means of a conversion factor (0.625). The pharmacokinetic parameters (Table 4) were calculated from the plasma concentrations by means of special software (WinNonlin).

popliteal lymph nodes = experiment: MRT demonstration of lymph nodes after intravenous administration in rats; format: in vivo; conditions: i.v., 50 μmol of Gd/kg, 1.5 T, early points in time (up to 60 min p.i.)
Excerpt: The figures show exemplary MR shots of popliteal lymph nodes at different points in time after intravenous administration of 50 μmol of Gd/kg of body weight of the substance from Example 2c) in FIG. 1, of the substance from Example 21 c) in FIG. 2, and of the substance from Example 22 c) in FIG. 3 in rats.

[2] = Excretion after intravenous administration in rats (ICP-AES); format: in vivo; conditions: i.v., 50 μmol of total gadolinium/kg; for Gd content, rest of body: 14 days after administration; for Gd content, faeces / Gd content, urine: up to 14 days after administration
Protocol: After intravenous administration of 50 μmol of total gadolinium/kg of body weight of substances from Examples 2c), 21 c) and 22 c) in rats (n=3), the metal content was determined fractionally up to 14 days after administration by means of atomic emission spectrometry (ICP-AES) in the excretion medium urine and faeces, and in the body (rest of body) (Table 3).

mice = experiment: Acute toxicity after single intravenous administration in mice (exploratory); format: in vivo; conditions: injection rate 2 ml/min, observation period 7 days
Protocol: After intravenous administration of the substances of Examples 2c), 21 c) and 22 c) in mice (n=3; injection rate: 2 ml/min), the acute systemic tolerability (LD50) was determined in an exploratory manner. In each case, a number of doses were investigated using an observation period of 7 days. The average acute toxicities to be expected were 2.5 mmol of Gd/kg of body weight for the substance from Example 2c) and >10.0 mmol of Gd/kg of body weight for the substances from Examples 21c) and 22 c).

histamine = experiment: Release of histamine after single intravenous administration in rats (plasma histamine, ELISA); format: in vivo; conditions: for Histamine, baseline: before contrast agent administration; for Histamine, 10 min p.i. / Histamine, 30 min p.i. / Histamine, 60 min p.i.: i.v.
Protocol: After intravenous administration of the substances from Examples 2c) and 22 c) in rats (n=3), the release of histamine was determined at different points in time. For this, blood was taken from the carotid artery before and 10, 30 and 60 minutes after contrast agent administration, and the histamine contained in the plasma was determined by means of an ELISA system. The histamine values measured can be seen in Table 2. The histamine blank values in the conscious rats were in the normal range known from the literature.

[3] = Relaxivity: T1 and T2 relaxation times of water and plasma (bovine), NMR pulse spectrometer (Minispec PC 20); format: physicochemical; conditions: for Relaxivity R1 / Relaxivity R2: 40° C., 0.47 T
Protocol: The T1 and T2 relaxation times of water and plasma (bovine) having increasing concentrations of the substance from Example 2c) contained therein were determined at 40° C. using an NMR pulse spectrometer (Minispec PC 20) at 0.47 T (Table 1).
From the R1 relaxivities in water at high and low concentrations, a critical micelle formation concentration (CMC) of 0.02 mmol of Gd/I can be determined.

[4] = in vivo; cited from earlier work
[5] = plasma (bovine), Gd concentration 0.271-1.086 mmol/l
[6] = water, Gd concentration 0.000-0.009 mmol/l
[7] = water, Gd concentration 0.020-1.099 mmol/l

Substance | Vc [1] | Vd ss [1] | α-t½ [1] | β-t½ [1] | signal in the functional lymph node tissue (T1-weighted MR shots) (popliteal lymph nodes) | Gd content, rest of body [2] | Gd content, faeces [2] | Gd content, urine [2] | Histamine, baseline (histamine) | Histamine, 10 min p.i. (histamine) | Histamine, 30 min p.i. (histamine) | Histamine, 60 min p.i. (histamine) | also measured
1,4,7-Tris(carboxylatomethyl)-10-[(3-aza-4-oxo-5-methyl-5-yl)-acid N-(1H,1H,2H,2H,4H,4H,-3,6,9,12-tetraoxaperfluorohexadecyl)-N-(2-methoxyethyl)amide]-1,4,7,10-tetraazacyclododecane, Gd complex [Example 2c] | 0.05 ± 0.00 L/kg | 0.08 ± 0.01 L/kg | 18.7 ± 2.0 min | 72 ± 12 min | strong signal increase | 0.2 ± 0.3 % dose | 92.9 ± 1.5 % dose | 0.8 ± 0.2 % dose | 3 ± 2 ng/mL | 4 ± 4 ng/mL | 5 ± 3 ng/mL | 3 ± 2 ng/mL | acute systemic tolerability (LD50) (mice): 2.5 mmol of Gd/kg of body weight; critical micelle formation concentration (CMC) ([3]; from the R1 relaxivities in water at high and low concentrations): 0.02 mmol of Gd/I; protein bond (relaxivity in plasma greater than in water) ([3]; plasma (bovine) versus water): indicates a protein bond; Relaxivity R1 [3, 5]: 26.0 ± 0.5 L/mmol/s; Relaxivity R2 [3, 5]: 35.1 ± 0.3 L/mmol/s; Relaxivity R1 [3, 6]: 5.3 ± 0.4 L/mmol/s; Relaxivity R2 [3, 6]: 5.3 ± 1.2 L/mmol/s; Relaxivity R1 [3, 7]: 17.8 ± 0.1 L/mmol/s; Relaxivity R2 [3, 7]: 16.3 ± 0.2 L/mmol/s
1,4,7-Tris(carboxylatomethyl)-10-[(3-aza-4-oxo-5-methyl-5-yl)acid N-(1H,1H,2H,2H,4H,4H,-3,6,9,12-tetraoxaperfluorohexadecyl)-N-{2-[2-(2-methoxyethoxy)ethoxy]-ethyl}amide]1,4,7,10-tetraazacyclododecane, Gd complex [Example 22c] | 0.04 ± 0.00 L/kg | 0.06 ± 0.00 L/kg | 23.6 ± 0.6 min | 108 ± 18 min | strong signal increase | 0.0 ± 0.0 % dose | 83.4 ± 2.6 % dose | 1.8 ± 0.1 % dose | 3 ± 1 ng/mL | 7 ± 3 ng/mL | 4 ± 1 ng/mL | 4 ± 1 ng/mL | –
1,4,7-Tris(carboxylatomethyl)-10-{(3-aza-4-oxo-5-methyl-5-yl)-acid-N-(1H,1H,2H,2H,4H,4H,-3,6,9,12-tetraoxaperfluorohexadecyl)-N-[2-(2-methoxyethoxy)ethyl]amide}-1,4,7,10-tetraazacyclododecane, Gd complex [Example 21c] | 0.04 ± 0.00 L/kg | 0.05 ± 0.00 L/kg | 28.4 ± 1.5 min | 78 ± 12 min | strong signal increase | 0.0 ± 0.0 % dose | 84.9 ± 0.7 % dose | 3.8 ± 0.1 % dose | – | – | – | – | –
Mn-TPPS | – | – | – | – | – | – | – | – | – | – | – | – | LD50 [4]: 0.5 mmol/kg; dose at which an action commences [4]: 0.2 mmol/kg
